This is an account of results in patent publication US6331551A, “Methods of treating microbial infection and therapeutic formulations therefor” (priority 2000, dated 2001).

Assay [1] relates to Agrobacterium tumefaciens. Put plainly: Disk zone of inhibition / antibacterial activity. Format: cell-based. Further details: key to Zone of inhibition: +++: High inhibition; ++: moderate inhibition; +: low inhibition; -: non inhibition. The conditions noted are these: A. tumefaciens; for MIC: Agrobacterium tumefaciens. On the procedure: (§1) The following seven bacteria were grown on nutrient agar slants for 48 hours at 37° C.: Enterobacter aerogens, Propionibacterium acnes, Pseudomonas aeruginosa, Escherichia coli, Bacillus subtilis, Agrobacterium tumefaciens, and Staphylococcus aureus.
(§2) A bacterial colony from each of the respective slants was suspended in 1 ml sterile deionized water. 0.1 ml of each cell suspension was evenly spread on nutrient agar plates (10×10^5 cells/ml). After 30 min, sclareol and sclareolide-impregnated disks were placed on bacteria-lawned plates. The sclareol and sclareolide used in this experiment were relatively pure samples (greater than 99% pure). Triplicate disks of (10, 100, 500, and 1000 ug/disk) of each sample was applied on to 6 mm diameter (0.3 mm thickness) filter paper disks and air dried. Controls were prepared with respective solvents. Plates were incubated for 24-48 hr at 37° C. The inhibition zones were measured and recorded after 15 hr, up to 48 hr.
(§3) A summary of the effects of sclareol and sclareolide against the bacteria and fungi tested in Examples 1 and 2 is provided in Table 3. The data is presented as the effect of sclareol and sclareolide on selected microbial cultures, in terms of minimum inhibitory concentration, as measured in μg/ml.

The test system of a further assay is Enterobacter aerogens. Description: Disk zone of inhibition / antibacterial activity. It counts as cell-based. Further details: key to Zone of inhibition: +++: High inhibition; ++: moderate inhibition; +: low inhibition; -: non inhibition. The following applies: E. aerogens; for MIC: Enterobacter. How it is done:
as §1, §2, §3

The test system of the next assay is Staphylococcus aureus. Description: Disk zone of inhibition / antibacterial activity. Also noted: key to Zone of inhibition: +++: High inhibition; ++: moderate inhibition; +: low inhibition; -: non inhibition. Format: cell-based. The conditions noted are these: S. aureus; for MIC: Staphylococcus aureus. On the procedure:
as §1, §2, §3

The next assay concerns Escherichia coli. Description: Disk zone of inhibition / antibacterial activity. Also noted: key to Zone of inhibition: +++: High inhibition; ++: moderate inhibition; +: low inhibition; -: non inhibition. It counts as cell-based. The following applies: E. coli; for MIC: Escherichia coli. How it is done:
as §1, §2, §3

Another assay deals with Pseudomonas aeruginosa. Description: Disk zone of inhibition / antibacterial activity. The following applies: P. aeruginosa; for MIC: Pseudomonas aeruginosa. It counts as cell-based. Also noted: key to Zone of inhibition: +++: High inhibition; ++: moderate inhibition; +: low inhibition; -: non inhibition. On the procedure:
as §1, §2, §3

Another assay deals with Bacillus subtilis. Description: Disk zone of inhibition / antibacterial activity. It counts as cell-based. Also noted: key to Zone of inhibition: +++: High inhibition; ++: moderate inhibition; +: low inhibition; -: non inhibition. The conditions noted are these: for MIC: Bacillus subtilis, B. subtilis; for Zone of inhibition: D. subtilis [sic]. How it is done: as §1, §2, §3

The next assay has as its system Propionibacterium acnes. Description: Disk zone of inhibition / antibacterial activity. The following applies: P. acnes; for MIC: Cutibacterium acnes. It counts as cell-based. Further details: key to Zone of inhibition: +++: High inhibition; ++: moderate inhibition; +: low inhibition; -: non inhibition. How it is done: as §1, §2, §3
In assay [2] the test system is Gram positive bacteria, specifically, S. aureus and P. acnes. Put plainly: Disk antibacterial test, Gram positive bacteria. It counts as cell-based. On the procedure:
as §1, §2

A further assay deals with Candida kefyr. Description: Antifungal MIC on potato dextrose agar. It counts as cell-based. The conditions noted are these: Kluyveromyces marxianus, PDA, 26° C., 48 hr up to one week. On the procedure: (§4) The yeast and fungi listed below in Table 2 were grown on potato dextrose agar (PDA) containing different concentrations of sclareol and sclareolide, according to the following method: sclareol or sclareolide (in powder form) was added to pre-measured amounts of PDA medium in petri plates, mixed thoroughly by tilting the petri plate from side to side, and allowed to solidify. The sclareol and […] in preparing the petri plates was of greater than 99% purity. After solidification, the plates were inoculated with 5 mm disks, cut from the outer margin of the actively growing cultures of yeast and fungi and placed in the center of the plate in an inverted position in direct contact with the sclareol/sclareolide impregnated medium. The plates were incubated at 26° C. The plates were monitored periodically to estimate the minimum inhibitory concentration (MIC) based on the growth proliferation from the 5 mm inoculum disk. The results were measured and recorded after 48 hr, up to one week. A summary of the effects of sclareol and sclareolide against the bacteria and fungi tested in Examples 1 and 2 is provided in Table 3. The data is presented as the effect of sclareol and sclareolide on selected microbial cultures, in terms of minimum inhibitory concentration, as measured in μg/ml.

A further assay concerns Saccharomyces cerevisiae. Description: Antifungal MIC on potato dextrose agar. It counts as cell-based. The conditions noted are these: PDA, 26° C., 48 hr up to one week. On the procedure: as §4
The subject of a further assay is Penicillium notatum. Put plainly: Antifungal MIC on potato dextrose agar. It counts as cell-based. The following applies: Penicillium chrysogenum, PDA, 26° C., 48 hr up to one week. On the procedure:
as §4

Another assay has as its system Aspergillus flavus. Put plainly: Antifungal MIC on potato dextrose agar. Format: cell-based. The following applies: PDA, 26° C., 48 hr up to one week. How it is done:
as §4

Another assay deals with bacteria tested. Description: Disk antibacterial test, overall. The conditions noted are these: in general. It counts as cell-based. On the procedure:
as §1, §2

The test system of the next assay is gram negative acne. The conditions noted are these: oral, subsequent to oral tetracycline or erythromycin; Poli et al. 1988; cited from earlier work.

SMILES strings stand for the structures. In brackets after ≈: the same amount, converted by molar mass.

As a reminder, the MIC is the lowest concentration that inhibits growth of the organism. As for `CC1(C)CCCC2(C)C1CCC1(C)OC(=O)CC12` (single isomer, unassigned) [Sclareolide, sclareolide], the Zone of inhibition entry is recorded as “+” in [1] (10 ug/disk); “++” in [1] (100 ug/disk); “+++” in [1] (500 ug/disk); “+++” in [1] (1000 ug/disk); “+” with Enterobacter aerogens (10 ug/disk); “++” in the assay on Enterobacter aerogens (100 ug/disk). The Zone of inhibition result in the assay on Enterobacter aerogens (500 ug/disk) is reported as “+++”; in the assay with Enterobacter aerogens (1000 ug/disk), “+++”; with Staphylococcus aureus (10 ug/disk), “+”; with Staphylococcus aureus (100 ug/disk), “++”; with Staphylococcus aureus (500 ug/disk), “+++”; with Staphylococcus aureus (1000 ug/disk) it was “+++”. In addition, the Zone of inhibition result is “-” in the assay with Escherichia coli (10 ug/disk); “-” in the assay on Escherichia coli (100 ug/disk); “+” in the assay on Escherichia coli (500 ug/disk); “++” with Escherichia coli (1000 ug/disk); “-” with Pseudomonas aeruginosa (10 ug/disk); “-” in the assay with Pseudomonas aeruginosa (100 ug/disk). Also, the Zone of inhibition entry is “++” in the assay on Pseudomonas aeruginosa (500 ug/disk); “++” in the assay with Pseudomonas aeruginosa (1000 ug/disk); “+” with Bacillus subtilis (10 ug/disk); “+” in the assay on Bacillus subtilis (100 ug/disk); “+” in the assay with Bacillus subtilis (500 ug/disk); “++” with Bacillus subtilis (1000 ug/disk). Besides, the Zone of inhibition entry in the assay on Propionibacterium acnes (10 ug/disk) was “+”; in the assay with Propionibacterium acnes (100 ug/disk), “+++”; in the assay with Propionibacterium acnes (500 ug/disk), “+++”; in the assay with Propionibacterium acnes (1000 ug/disk), “+++”. The MIC was 10 µg/mL (≈ 39.9 µM) in assay [1]; 10 µg/mL (≈ 39.9 µM) against Enterobacter aerogens; 50 µg/mL (≈ 200 µM) against Staphylococcus aureus; 500 µg/mL (≈ 2000 µM) with Escherichia coli; 500 µg/mL (≈ 2000 µM) in the assay with Pseudomonas aeruginosa; 10 µg/mL (≈ 39.9 µM) in the assay with Bacillus subtilis. Further, the MIC in the assay on Propionibacterium acnes came to 40 µg/mL (≈ 160 µM); against Candida kefyr, 400 µg/mL (≈ 1600 µM); against Saccharomyces cerevisiae it was 500 µg/mL (≈ 2000 µM); against Penicillium notatum, 1000 µg/mL (≈ 3990 µM); against Aspergillus flavus it was 1000 µg/mL (≈ 3990 µM). For the same compound, the sensitivity to treatment entry is on record as “more sensitive” in the assay with Enterobacter aerogens; “more sensitive” in the assay on Staphylococcus aureus; “least sensitive” with Escherichia coli; “least sensitive” in the assay with Pseudomonas aeruginosa; “more sensitive” in the assay with Propionibacterium acnes. Besides, the “activity against Gram positive bacteria” value in assay [2] is on record as “more active against Gram positive bacteria”.

Turning to `C=C[C@](C)(O)CC[C@@H]1[C@@]2(C)CCCC(C)(C)[C@@H]2CC[C@@]1(C)O` [Sclareol, sclareol], the Zone of inhibition result in assay [1] (10 ug/disk) was “+”; in assay [1] (100 ug/disk), “++”; in assay [1] (500 ug/disk), “+++”; in assay [1] (1000 ug/disk), “+++”; with Enterobacter aerogens (10 ug/disk), “+”; in the assay with Enterobacter aerogens (100 ug/disk) it was “+++”. Also, the Zone of inhibition entry is recorded as “+++” in the assay on Enterobacter aerogens (500 ug/disk); “+++” with Enterobacter aerogens (1000 ug/disk); “+” in the assay with Staphylococcus aureus (10 ug/disk); “++” with Staphylococcus aureus (100 ug/disk); “+++” in the assay on Staphylococcus aureus (500 ug/disk); “+++” with Staphylococcus aureus (1000 ug/disk). Further, the Zone of inhibition entry is “-” in the assay with Escherichia coli (10 ug/disk); “-” with Escherichia coli (100 ug/disk); “+” with Escherichia coli (500 ug/disk); “++” in the assay on Escherichia coli (1000 ug/disk); “-” in the assay with Pseudomonas aeruginosa (10 ug/disk); “+” in the assay on Pseudomonas aeruginosa (100 ug/disk). For the same compound, the Zone of inhibition entry in the assay with Pseudomonas aeruginosa (500 ug/disk) is recorded as “++”; in the assay with Pseudomonas aeruginosa (1000 ug/disk) it was “++”; with Bacillus subtilis (10 ug/disk), “+”; in the assay with Bacillus subtilis (100 ug/disk), “+”; with Bacillus subtilis (500 ug/disk) it was “++”; in the assay with Bacillus subtilis (1000 ug/disk), “++”. In addition, the Zone of inhibition result is “+” with Propionibacterium acnes (10 ug/disk), “+++” in the assay with Propionibacterium acnes (100 ug/disk), “+++” with Propionibacterium acnes (500 ug/disk) and “+++” in the assay on Propionibacterium acnes (1000 ug/disk). Also, the minimal inhibitory concentration (MIC) turned out to be 10 µg/mL (≈ 32.4 µM) in assay [1]; 10 µg/mL (≈ 32.4 µM) with Enterobacter aerogens; 50 µg/mL (≈ 162 µM) with Staphylococcus aureus; 500 µg/mL (≈ 1620 µM) in the assay with Escherichia coli; 100 µg/mL (≈ 324 µM) with Pseudomonas aeruginosa; 10 µg/mL (≈ 32.4 µM) in the assay on Bacillus subtilis. The MIC worked out at 40 µg/mL (≈ 130 µM) in the assay on Propionibacterium acnes; 100 µg/mL (≈ 324 µM) with Candida kefyr; 500 µg/mL (≈ 1620 µM) against Saccharomyces cerevisiae; 1000 µg/mL (≈ 3240 µM) against Penicillium notatum; 1000 µg/mL (≈ 3240 µM) against Aspergillus flavus. Moreover, the sensitivity to treatment entry is “more sensitive” in the assay with Enterobacter aerogens; “more sensitive” with Staphylococcus aureus; “least sensitive” in the assay on Escherichia coli; “least sensitive” with Pseudomonas aeruginosa; “more sensitive” in the assay on Propionibacterium acnes. In addition, the “relative activity against the bacteria tested” value in the assay with bacteria tested is on record as “more active than sclareolide”. The “activity against Gram positive bacteria” value in [2] is “more active against Gram positive bacteria”.

As to `CC1(C)S[C@@H]2[C@H](NC(=O)[C@H](N)c3ccc(O)cc3)C(=O)N2[C@H]1C(=O)O` [amoxicillin], the “effectiveness in treating gram negative acne” value in the assay on gram negative acne is “effective”.

Take `CC1(C)S[C@@H]2[C@H](NC(=O)[C@H](N)c3ccccc3)C(=O)N2[C@H]1C(=O)O` [ampicillin]: the “effectiveness in treating gram negative acne” value in the assay with gram negative acne is given as “effective”.
